According to ChEMBL document CHEMBL5338768, “Discovery of PMSA Derivative 11 as a Novel Lead Compound for Therapeutic Treatment of Osteoporosis In Vitro and In Vivo” (J Med Chem, 2023):
Each block holds one compound with its values, some of them ahead of it. Activity calls are given as the source filed them. The calls are words filed in the database; no cut-off is given here.

Assays:
Osteoclast [1] = assay: Anti-osteoclastogenesis in RANKL induced C57/BL6 mouse osteoclast assessed as formation of mature osteoclast measured at 1 uM by TRAP-staining based microscopic analysis relative to control; assay type: functional
Osteoclast [2] = assay: Anti-osteoclastogenesis in human RANKL/human M-CSF induced human iPSC-derived macrophage assessed as inhibition of mature osteoclast differentiation measured for 10 days by TRAP staining assay; assay type: functional, cell-based; conditions: time 10.0 day
BMDM [3] = assay: Anti-osteoclastogenesis in RANKL/M-CSF induced C57/BL6 mouse osteogenic differentiated BMDM assessed as expression of calcineurin A in NAFTc1 translocation by immunofluorescence microscopy; assay type: functional, cell-based
Osteoclast [4] = assay: Anti-osteoclastogenesis in RANKL induced C57/BL6 mouse osteoclast assessed as blocking of formation of multinucleated mature osteoclast incubated for 48 hrs; assay type: functional, cell-based; conditions: dose 62.5-4000 nM
[5] = Toxicity in OVX induced osteoporosis C57BL/6 mouse model assessed as reduction of body weight at 20 mg/kg, ip daily for 4 weeks measured every week; assay type: organism-based; conditions: in vivo, 672 h
BMDM [6] = assay: Anti-osteoclastogenesis in RANKL induced C57/BL6 mouse osteogenic differentiated BMDM assessed as inhibition of TRAF6 protein expression measured at 1 uM for 0 to 4 days by Western blotting analysis; assay type: functional, cell-based; conditions: time 0-4 day
Mus musculus = assay: Anti-osteoporosis activity in OVX induced osteoporosis C57BL/6 mouse model assessed as prevention of bone loss in femur at 20 mg/kg, ip daily for 4 weeks by micro computed tomographic analysis; assay type: functional, organism-based
BMDM [7] = assay: Anti-osteoclastogenesis in RANKL/M-CSF induced C57/BL6 mouse osteogenic differentiated BMDM assessed as expression of GAPDH in NAFTc1 translocation by immunofluorescence microscopy; assay type: functional, cell-based
BMDM [8] = assay: Anti-osteoclastogenesis in RANKL induced C57/BL6 mouse osteogenic differentiated BMDM assessed as inhibition of c-fos protein expression measured at 1 uM for 0 to 4 days by Western blotting analysis; assay type: functional, cell-based; conditions: time 0-4 day
BMDM [9] = assay: Anti-osteoclastogenesis in RANKL induced C57/BL6 mouse osteogenic differentiated BMDM assessed as inhibition of c-src protein expression measured at 1 uM for 0 to 4 days by Western blotting analysis; assay type: functional, cell-based; conditions: time 0-4 day
BMDM [10] = assay: Anti-osteoclastogenesis in RANKL/M-CSF induced C57/BL6 mouse osteogenic differentiated BMDM assessed as suppression of mRNA level of osteoclastogenesis related Ctsk-gene expression measured for 0 to 4 days by qRT-PCR analysis; assay type: functional, cell-based; conditions: time 0-4 day
Calvarial osteoblast = assay: Effect on osteogenesis in BMP2 stimulated mouse osteogenic differentiated calvaria primary osteoblast assessed as chane in percentage of ALP positive density at 0.125 to 16 uM with replacement of compound containing media daily for 9 days by ALP staining analysis; assay type: functional, cell-based; conditions: dose 0.125-16 µM, time 9.0 day
BMDM [11] = assay: Anti-osteoclastogenesis in RANKL/M-CSF induced C57/BL6 mouse osteogenic differentiated BMDM assessed as suppression of mRNA level of osteoclastogenesis related Nfatc1 gene expression measured for 0 to 4 days by qRT-PCR analysis; assay type: functional, cell-based; conditions: time 0-4 day
BMDM [12] = assay: Anti-osteoclastogenesis in RANKL/M-CSF induced C57/BL6 mouse osteogenic differentiated BMDM assessed as suppression of mRNA level of osteoclastogenesis related Acp5 gene expression measured for 0 to 4 days by qRT-PCR analysis; assay type: functional, cell-based; conditions: time 0-4 day
BMDM [13] = assay: Anti-osteoclastogenesis in RANKL/M-CSF induced C57/BL6 mouse osteogenic differentiated BMDM assessed as suppression of mRNA level of osteoclastogenesis related Atp6v0d2 gene expression measured for 0 to 4 days by qRT-PCR analysis; assay type: functional, cell-based; conditions: time 0-4 day
BMDM [14] = assay: Anti-osteoclastogenesis in RANKL induced C57/BL6 mouse osteogenic differentiated BMDM assessed as inhibition of protease Ctsk-protein expression measured at 1 uM for 0 to 4 days by Western blotting analysis; assay type: functional, cell-based; conditions: time 0-4 day
BMDM [15] = assay: Anti-osteoclastogenesis in RANKL induced C57/BL6 mouse osteogenic differentiated BMDM assessed as inhibition of N-FkappaB protein expression measured at 1 uM for 0 to 4 days by Western blotting analysis; assay type: functional, cell-based; conditions: time 0-4 day
BMDM [16] = assay: Anti-osteoclastogenesis in RANKL/M-CSF induced C57/BL6 mouse osteogenic differentiated BMDM assessed as suppression of mRNA level of osteoclastogenesis related Dc-stamp gene expression measured for 0 to 4 days by qRT-PCR analysis; assay type: functional, cell-based; conditions: time 0-4 day
BMDM [17] = assay: Anti-osteoclastogenesis in RANKL/M-CSF induced C57/BL6 mouse osteogenic differentiated BMDM assessed as expression of CRM1 in NAFTc1 translocation by immunofluorescence microscopy; assay type: functional, cell-based
BMDM [18] = assay: Cytotoxicity in RANKL induced C57/BL6 mouse mouse osteogenic differentiated BMDM assessed as blocking of formation of multinucleated mature osteoclast incubated at 4 uM for 48 hrs; assay type: functional, cell-based
BMDM [19] = assay: Anti-osteoclastogenesis in RANKL/M-CSF induced C57/BL6 mouse osteogenic differentiated BMDM assessed as suppression of mRNA level of osteoclastogenesis related Mmp9 gene expression measured for 0 to 4 days by qRT-PCR analysis; assay type: functional, cell-based; conditions: time 0-4 day
BMDM [20] = assay: Anti-osteoclastogenesis in RANKL induced C57/BL6 mouse osteogenic differentiated BMDM assessed as decreased NAFTc1 protein level in nucleus measured for 48 hrs by Western blotting analysis; assay type: functional, cell-based
BMDM [21] = assay: Anti-osteoclastogenesis in RANKL/M-CSF induced C57/BL6 mouse osteogenic differentiated BMDM assessed as decrease in pit area at 0.5 to 2 uM for 6 days by measuring fluorescence intensity using fluorescein amine labelled calcium plate method; assay type: functional, cell-based; conditions: dose 0.5-2 µM, time 6.0 day
BMDM [22] = assay: Anti-osteoclastogenesis in RANKL induced C57/BL6 mouse osteogenic differentiated BMDM assessed as inhibition of NFATc1 protein expression measured at 1 uM for 0 to 4 days by Western blotting analysis; assay type: functional, cell-based; conditions: time 0-4 day
Osteoclast [23] = assay: Anti-osteoclastogenesis in RANKL induced C57/BL6 mouse osteoclast assessed as inhibition of differentiation of bone marrow derived macrophage measured by TRAP-staining based microscopic analysis; assay type: functional, cell-based
[24] = biological target: T1, Nuclear factor of activated T-cells, cytoplasmic 1 (Mus musculus) (UniProt O88942); assay: Inhibition of pronase mediated NFATc1 degradation in mouse osteogenic differentiated BMDM multi nuclear mature osteoclast at 50 uM for 1 hr by drug affinity responsive target stability analysis; assay type: cell-based
T1 sequence (whole entry): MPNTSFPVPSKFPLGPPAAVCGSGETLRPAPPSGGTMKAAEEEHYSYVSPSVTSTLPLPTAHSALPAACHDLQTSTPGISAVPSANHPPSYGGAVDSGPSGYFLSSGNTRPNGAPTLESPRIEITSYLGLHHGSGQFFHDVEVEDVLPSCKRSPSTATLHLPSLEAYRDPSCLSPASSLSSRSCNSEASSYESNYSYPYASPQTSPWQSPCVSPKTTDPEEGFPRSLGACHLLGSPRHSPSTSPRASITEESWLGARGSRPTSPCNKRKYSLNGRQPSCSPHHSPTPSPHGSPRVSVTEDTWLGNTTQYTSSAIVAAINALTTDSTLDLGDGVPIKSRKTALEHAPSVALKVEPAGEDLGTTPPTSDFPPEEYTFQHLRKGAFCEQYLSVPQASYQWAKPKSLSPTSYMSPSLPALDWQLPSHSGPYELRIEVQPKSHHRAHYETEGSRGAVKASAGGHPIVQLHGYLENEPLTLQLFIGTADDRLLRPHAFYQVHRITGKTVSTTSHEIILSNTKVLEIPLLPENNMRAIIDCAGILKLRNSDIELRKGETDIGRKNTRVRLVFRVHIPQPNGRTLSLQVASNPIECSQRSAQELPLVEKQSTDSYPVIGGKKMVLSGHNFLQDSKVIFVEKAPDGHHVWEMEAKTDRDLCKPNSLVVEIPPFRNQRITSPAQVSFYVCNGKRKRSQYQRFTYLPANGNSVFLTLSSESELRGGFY

BMDM [25] = assay: Anti-osteoclastogenesis in RANKL/M-CSF induced C57/BL6 mouse osteogenic differentiated BMDM assessed as repression of F-actin ring at 500 to 2000 nM spectra max i3x fluorescence plate reader based microscopic analysis; assay type: functional, cell-based; conditions: dose 500-2000 nM
BMDM [26] = assay: Anti-osteoclastogenesis in RANKL induced C57/BL6 mouse osteogenic differentiated BMDM assessed as increased NAFTc1 protein level in cytoplasm measured for 48 hrs by Western blotting analysis; assay type: functional, cell-based
BMDM [27] = assay: Anti-osteoclastogenesis in RANKL/M-CSF induced C57/BL6 mouse osteogenic differentiated BMDM assessed as expression of GSK3beta in NAFTc1 translocation by immunofluorescence microscopy; assay type: functional, cell-based
BMDM [28] = assay: Cytotoxicity in RANKL induced C57/BL6 mouse BMDM incubated at <4 uM for 48 hrs; assay type: functional, cell-based
BMDM [29] = assay: Anti-osteoclastogenesis in RANKL/M-CSF induced C57/BL6 mouse osteogenic differentiated BMDM assessed as decrease in pit area at 10 uM for 6 days by measuring fluorescence intensity using fluorescein amine labelled calcium plate method; assay type: functional, cell-based; conditions: time 6.0 day
BMDM [30] = assay: Anti-osteoclastogenesis in RANKL/M-CSF induced C57/BL6 mouse osteogenic differentiated BMDM assessed as repression of F-actin ring at 10 uM spectra max i3x fluorescence plate reader based microscopic analysis; assay type: functional, cell-based

SMILES: CS(=O)(=O)N(CC(=O)Nc1ccccc1Sc1ccccc1)c1cccc(C(=O)O)c1
- inhibition at 1 µM (Osteoclast [1]): 0.11%

SMILES: COc1ccc(OC(=O)c2cccc(N(CC(=O)Nc3ccccc3Sc3ccccc3)S(C)(=O)=O)c2)cc1
- inhibition at 1 µM (Osteoclast [1]): 25.7%

SMILES: CS(=O)(=O)N(CC(=O)Nc1ccccc1Sc1ccccc1)c1cccc(C(=O)Oc2ccc(Cl)cc2)c1
- inhibition at 1 µM (Osteoclast [1]): 23.9%

SMILES: CS(=O)(=O)N(CC(=O)Nc1ccccc1Sc1ccccc1)c1cccc(C(=O)Oc2ccccc2C#N)c1
- inhibition at 1 µM (Osteoclast [1]): 11.1%

SMILES: COc1ccccc1OC(=O)c1cccc(NCC(=O)Nc2ccccc2Sc2ccccc2)c1
- inhibition at 1 µM (Osteoclast [1]): 52.3%

SMILES: CS(=O)(=O)N(CC(=O)Nc1ccccc1Sc1ccccc1)c1cccc(Cl)c1
- inhibition at 1 µM (Osteoclast [1]): 16.2%

SMILES: CS(=O)(=O)N(CC(=O)Nc1ccccc1Sc1ccccc1)c1cccc(C(=O)Oc2ccc3ccccc3c2)c1
- inhibition at 1 µM (Osteoclast [1]): 11.3%

- inhibition [24]: Active
SMILES: COC(=O)c1cccc(NCC(=O)Nc2ccccc2Sc2ccccc2)c1
- Activity (Osteoclast [2]): Active
- Activity (BMDM [3]): inactive
- Activity (Osteoclast [4]): Dose-Dependent Effect
- Activity [5]: Non-Toxic
- Activity (BMDM [6]): inactive
- Activity (Mus musculus): Active
- Activity (BMDM [7]): inactive
- Activity (BMDM [8]): inactive
- Activity (BMDM [9]): inactive
- Activity (BMDM [10]): Active
- Activity (Calvarial osteoblast): inactive
- Activity (BMDM [11]): Active
- Activity (BMDM [12]): Active
- Activity (BMDM [13]): Active
- Activity (BMDM [14]): Active
- Activity (BMDM [15]): inactive
- Activity (BMDM [16]): Active
- Activity (BMDM [17]): inactive
- Activity (BMDM [18]): Active
- Activity (BMDM [19]): Active
- Activity (BMDM [20]): Active
- Activity (BMDM [21]): Dose-Dependent Effect
- Activity (BMDM [22]): inactive
- IC50 (Osteoclast [23]): 323 nM
- Activity (BMDM [25]): Active
- Activity (BMDM [26]): Active
- Activity (BMDM [27]): inactive
- Activity (BMDM [28]): inactive
- inhibition at 1 µM (Osteoclast [1]): 74.5%

SMILES: CC(C)(C)c1ccc(OC(=O)c2cccc(N(CC(=O)Nc3ccccc3Sc3ccccc3)S(C)(=O)=O)c2)cc1
- inhibition at 1 µM (Osteoclast [1]): 4.07%

SMILES: CS(=O)(=O)N(CC(=O)Nc1ccccc1Sc1ccccc1)c1cccc(C(=O)Oc2ccc([N+](=O)[O-])cc2)c1
- inhibition at 1 µM (Osteoclast [1]): 15.3%

SMILES: CC(=O)c1cccc(N(CC(=O)Nc2ccccc2Sc2ccccc2)S(C)(=O)=O)c1
- Activity (Mus musculus): inactive
- Activity (BMDM [29]): Active
- Activity (BMDM [30]): Active
- inhibition at 1 µM (Osteoclast [1]): 6.09%

SMILES: COc1ccccc1OC(=O)c1cccc(N(CC(=O)Nc2ccccc2Sc2ccccc2)S(C)(=O)=O)c1
- inhibition at 1 µM (Osteoclast [1]): 20.3%

SMILES: NCCCC(O)(P(=O)(O)O)P(=O)(O)O [ALENDRONIC ACID]
- inhibition at 1 µM (Osteoclast [1]): 30.9%

SMILES: COc1ccc(OC(=O)c2cccc(NCC(=O)Nc3ccccc3Sc3ccccc3)c2)cc1
- inhibition at 1 µM (Osteoclast [1]): 50.9%

SMILES: COC(=O)c1cccc(N(CC(=O)Nc2ccccc2Sc2ccccc2)S(C)(=O)=O)c1
- inhibition at 1 µM (Osteoclast [1]): 8.13%

SMILES: Cc1cccc(OC(=O)c2cccc(N(CC(=O)Nc3ccccc3Sc3ccccc3)S(C)(=O)=O)c2)c1
- inhibition at 1 µM (Osteoclast [1]): 19%

SMILES: CS(=O)(=O)N(CC(=O)Nc1ccccc1Sc1ccccc1)c1cccc(C(=O)Oc2cccc([N+](=O)[O-])c2)c1
- inhibition at 1 µM (Osteoclast [1]): 4.74%

SMILES: Cc1ccc(OC(=O)c2cccc(N(CC(=O)Nc3ccccc3Sc3ccccc3)S(C)(=O)=O)c2)cc1
- inhibition at 1 µM (Osteoclast [1]): 14.2%

SMILES: CS(=O)(=O)N(CC(=O)Nc1ccccc1Sc1ccccc1)c1cccc(C(=O)Oc2cccc3ccccc23)c1
- inhibition at 1 µM (Osteoclast [1]): 9.03%

SMILES: Cc1ccccc1OC(=O)c1cccc(N(CC(=O)Nc2ccccc2Sc2ccccc2)S(C)(=O)=O)c1
- inhibition at 1 µM (Osteoclast [1]): 15.3%

SMILES: O=C(CNc1cccc(C(=O)Oc2ccc(Cl)cc2)c1)Nc1ccccc1Sc1ccccc1
- inhibition at 1 µM (Osteoclast [1]): 43.2%
